Source: US11986532B2 (Arvinas Operations, Inc., priority 2021, dated 2024)
Where two headings read alike, the source gives them in different places.

Biological target: T1, BCL6 (Homo sapiens, UniProt P41182)
T1 construct: endogenous in cells; host or cells: T47D breast cancer epithelial cells
Experiment: Immunofluorescence protocol for high content imaging of BCL6 (degradation) in T47D cells, 3 days compound treatment
Type: cell-based
Conditions: for DC50: read-out: Mean DC50 (nM)* category; for Dmax: read-out: Mean Dmax (%)** category
How it was run: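 Cells are seeded to reach ~70-90% confluence at endpoint, then dosed next day with compound at a final top concentration of 0.1 or 1 μM (11 points, 3-fold). After 3 days, BCL6 is detected by immunofluorescence and quantified by high-content imaging.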

[1] = T47D cells, 3 days compound treatment

Row | DC50 [1] [nM] | Dmax [1] [%] | Compound | Dmax (T47D) [%] | DC50 [nM]
1 | < 10 | 50 to 70 | CNC(=O)COc1cc2cc(Nc3nc(N4CCC(CN5CCC6(CC5)CC5(CN(c7ccc8c(c7)CN(C7CCC(=O)NC7=O)C8=O)C5)C6)CC4)ncc3Cl)ccc2n(C(C)C)c1=O (stereo not drawn) [Compound 168, 2-{[6-({5-chloro-2-[4-({2-[2-(2,6-dioxopiperidin-3-yl)-1-oxo-2,3-dihydro-1H-isoindol-5-yl]-2,9-diazadispiro[3.1.5^6.1^4]dodecan-9-yl}methyl)piperidin-1-yl]pyrimidin-4-yl}amino)-2-oxo-1-(propan-2-yl)-1,2-dihydroquinolin-3-yl]oxy}-N-methylacetamide] |  | 
2 | < 10 | < 50 | CNC(=O)COc1cc2cc(Nc3nc(N4CCC(CN5CC6(CCN(c7ccc8c(c7OC)CN(C7CCC(=O)NC7=O)C8=O)CC6)C5)CC4)ncc3Cl)ccc2n(C(C)C)c1=O (stereo not drawn) [Compound 88, 2-{[6-({5-chloro-2-[4-({7-[2-(2,6-dioxopiperidin-3-yl)-4-methoxy-1-oxo-2,3-dihydro-1H-isoindol-5-yl]-2,7-diazaspiro[3.5]nonan-2-yl}methyl)piperidin-1-yl]pyrimidin-4-yl}amino)-2-oxo-1-(propan-2-yl)-1,2-dihydroquinolin-3-yl]oxy}-N-methylacetamide] |  | 
3 | < 10 | 50 to 70 | CNC(=O)COc1cc2cc(Nc3nc(N4CCN(C(C)(C)C5CCN(c6cc7c(c(OC)c6)C(=O)N(C6CCC(=O)NC6=O)C7)CC5)CC4)ncc3Cl)ccc2n(C(C)C)c1=O (stereo not drawn) [Compound 77, 2-{[6-({5-chloro-2-[4-(2-{1-[2-(2,6-dioxopiperidin-3-yl)-7-methoxy-1-oxo-2,3-dihydro-1H-isoindol-5-yl]piperidin-4-yl}propan-2-yl)piperazin-1-yl]pyrimidin-4-yl}amino)-2-oxo-1-(propan-2-yl)-1,2-dihydroquinolin-3-yl]oxy}-N-methylacetamide] |  | 
4 | < 10 | 50 to 70 | CNC(=O)COc1cc2cc(Nc3nc(N4CCC(O[C@H]5C[C@H](N6CC[C@H](c7ccc8c(c7)C(=O)N(C7CCC(=O)NC7=O)C8)[C@H](F)C6)C5)CC4)ncc3Cl)ccc2n(C(C)C)c1=O (mixture of isomers) [Compound 132] |  | 
5 |  |  | CNC(=O)COc1cc2cc(Nc3nc(N4CCC(O[C@H]5C[C@H](N6CCC(c7cc8c(cc7C(F)(F)F)C(=O)N(C7CCC(=O)NC7=O)C8)CC6)C5)CC4)ncc3Cl)ccc2n(C(C)C)c1=O (stereo partly drawn) [Compound 212, 2-({6-[(5-chloro-2-{4-[(1r,3r)-3-{4-[2-(2,6-dioxopiperidin-3-yl)-1-oxo-6-(trifluoromethyl)-2,3-dihydro-1H-isoindol-5-yl]piperidin-1-yl}cyclobutoxy]piperidin-1-yl}pyrimidin-4-yl)amino]-2-oxo-1-(propan-2-yl)-1,2-dihydroquinolin-3-yl}oxy)-N-methylacetamide] | 50 to 70 | < 10
6 | ≥ 100 | ≥ 70 | CNC(=O)COc1cc2cc(Nc3nc(N4CCC5(CCN(CC6(F)CCN(c7ccc(F)c8c7C(=O)N(C7CCC(=O)NC7=O)C8)CC6)CC5)CC4)ncc3Cl)ccc2n(C(C)C)c1=O (stereo not drawn) [Compound 130, 2-{[6-({5-chloro-2-[9-({1-[2-(2,6-dioxopiperidin-3-yl)-7-fluoro-3-oxo-2,3-dihydro-1H-isoindol-4-yl]-4-fluoropiperidin-4-yl}methyl)-3,9-diazaspiro[5.5]undecan-3-yl]pyrimidin-4-yl}amino)-2-oxo-1-(propan-2-yl)-1,2-dihydroquinolin-3-yl]oxy}-N-methylacetamide] |  | 
7 |  |  | CNC(=O)COc1cc2cc(Nc3nc(N4CCC(O[C@H]5C[C@H](N6CCC7(CCCN(c8ccc9c(c8)CN(C8CCC(=O)NC8=O)C9=O)C7)C6)C5)CC4)ncc3Cl)ccc2n(C(C)C)c1=O (stereo partly drawn) [Compound 354, 2-({6-[(5-chloro-2-{4-[(1r,3r)-3-{7-[2-(2,6-dioxopiperidin-3-yl)-1-oxo-2,3-dihydro-1H-isoindol-5-yl]-2,7-diazaspiro[4.5]decan-2-yl}cyclobutoxy]piperidin-1-yl}pyrimidin-4-yl)amino]-2-oxo-1-(propan-2-yl)-1,2-dihydroquinolin-3-yl}oxy)-N-methylacetamide] | 50 to 70 | < 10
8 | 10 to 50 | 50 to 70 | CNC(=O)COc1cc2cc(Nc3nc(N4CCN(C[C@H]5C[C@@H](N6CCC(c7ccc8c(c7)C(=O)N(C7CCC(=O)NC7=O)C8=O)CC6)C5)CC4)ncc3Cl)ccc2n(C(C)C)c1=O (stereo partly drawn) [Compound 40, 2-[(6-{[5-chloro-2-(4-{[(1s,3s)-3-{4-[2-(2,6-dioxopiperidin-3-yl)-1,3-dioxo-2,3-dihydro-1H-isoindol-5-yl]piperidin-1-yl}cyclobutyl]methyl}piperazin-1-yl)pyrimidin-4-yl]amino}-2-oxo-1-(propan-2-yl)-1,2-dihydroquinolin-3-yl)oxy]-N-methylacetamide] |  | 
9 |  |  | CNC(=O)COc1cc2cc(Nc3nc(N4CCN(CC5CCC6(CC5)CN(c5c(F)ccc7c5CN(C5CCC(=O)NC5=O)C7=O)C6)CC4)ncc3Cl)ccc2n(C(C)C)c1=O (stereo not drawn) [Compound 314, 2-{[6-({5-chloro-2-[4-({2-[2-(2,6-dioxopiperidin-3-yl)-5-fluoro-1-oxo-2,3-dihydro-1H-isoindol-4-yl]-2-azaspiro[3.5]nonan-7-yl}methyl)piperazin-1-yl]pyrimidin-4-yl}amino)-2-oxo-1-(propan-2-yl)-1,2-dihydroquinolin-3-yl]oxy}-N-methylacetamide] | 50 to 70 | < 10
